Results taken from patent US20200095236A1, “ANTIBACTERIAL COMPOUNDS” (FORGE THERAPEUTICS, INC., priority 2017, published 2020).
Values after ≈ are worked out from the molar mass of the structure shown. Read-outs that look alike come from different tables or passages of the source.

Assays:
[1] = tested on: E. coli; experiment: Bacterial susceptibility testing, MIC by broth microdilution (CLSI); assay type: cell-based; conditions: Escherichia coli, read-out: E. coli MIC
Description: (§1) Minimal inhibitory concentrations (MIC) were determined by the broth microdilution method in accordance with the Clinical and Laboratory Standards Institute (CLSI) guidelines. In brief, organism suspensions were adjusted to a 0.5 McFarland standard to yield a final inoculum between 3×10^5 and 7×10^5 colony-forming units (CFU)/mL. Drug dilutions and inocula were made in sterile, cation adjusted Mueller-Hinton Broth (Beckton Dickinson). An inoculum volume of 100 μL was added to wells containing 100 μL of broth with 2-fold serial dilutions of drug. All inoculated microdilution trays were incubated in ambient air at 35° C. for 18-24 h. Following incubation, the lowest concentration of the drug that prevented visible growth (OD600 nm<0.05) was recorded as the MIC. Performance of the assay was monitored by the use of laboratory quality-control strains and levofloxacin, a compound with a defined MIC spectrum, in accordance with CLSI guidelines.

[2] = tested on: K. pneumoniae; experiment: as above; assay type: cell-based; conditions: Klebsiella pneumoniae, read-out: K. pneumoniae MIC
Description: as §1

[3] = tested on: S. aureus; experiment: as above; assay type: cell-based; conditions: Staphylococcus aureus, read-out: S. aureus MIC
Description: as §1

[4] = tested on: TLR-4 activity of A. baumannii culture supernatants; experiment: TLR4 assay: TLR4 activity of A. baumannii culture supernatants in HEK-Blue-hTLR4 cells; assay type: cell-based; conditions: Acinetobacter baumannii, HEK-Blue hTLR4, read-out: % TLR-4 activity
How it was run: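 A. baumannii was grown to mid-log phase with LpxC inhibitors, and culture supernatants were filter-sterilized and diluted 1:1000. Supernatant TLR4 activity was measured in HEK-Blue-hTLR4 cells carrying an NF-kB/AP-1-driven SEAP reporter and reported as % TLR-4 activity.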

[5] = molecular target: E. coli LpxC (Escherichia coli, UniProt P0A725); experiment: LpxC Binding Assay (Rapid Fire MS assay); assay type: biochemical
Chain of E. coli LpxC (P0A725 whole entry): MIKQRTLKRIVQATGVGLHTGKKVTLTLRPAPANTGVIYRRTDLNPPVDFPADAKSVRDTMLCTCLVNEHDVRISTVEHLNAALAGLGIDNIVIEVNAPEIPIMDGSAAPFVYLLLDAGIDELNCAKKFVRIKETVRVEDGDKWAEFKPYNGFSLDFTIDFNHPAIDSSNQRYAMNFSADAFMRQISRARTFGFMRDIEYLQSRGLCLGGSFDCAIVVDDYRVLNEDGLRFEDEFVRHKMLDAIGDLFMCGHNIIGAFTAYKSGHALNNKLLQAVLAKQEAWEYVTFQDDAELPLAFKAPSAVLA

[6] = broth microdilution, 35° C., 18-24 h

O=C(NCCF)C(Cc1ccc(C#Cc2ccc(CN3CCOCC3)cc2)cc1)c1nc[nH]c(=O)c1O (stereo not drawn) [Compound 3, N-(2-fluoroethyl)-2-(5-hydroxy-6-oxo-1,6-dihydropyrimidin-4-yl)-3-(4-((4-(morpholinomethyl)phenyl)ethynyl)phenyl) propanamide]
MIC [1, 6]: < 1 µg/mL
MIC [2, 6]: 1 to 8 µg/mL (≈ 1.98 to 15.9 µM)
MIC [3, 6]: > 32 µg/mL
activity at 4 µg/mL [4]: 50 to 80%
activity at 8 µg/mL [4]: 20 to 50%
activity at 16 µg/mL [4]: 20 to 50%
IC50 [5]: 10 to 50 nM

O=C(NCC(F)F)C(Cc1ccc(C#Cc2ccc(CN3CCOCC3)cc2)cc1)c1nc[nH]c(=O)c1O (stereo not drawn) [Compound 1, N-(2,2-difluoroethyl)-2-(5-hydroxy-6-oxo-1,6-dihydropyrimidin-4-yl)-3-(4-((4-(morpholinomethyl)phenyl)ethynyl)phenyl) propanamide]
MIC [1, 6]: < 1 µg/mL
MIC [2, 6]: 1 to 8 µg/mL (≈ 1.91 to 15.3 µM)
MIC [3, 6]: > 32 µg/mL
activity at 4 µg/mL [4]: < 20%
activity at 8 µg/mL [4]: < 20%
activity at 16 µg/mL [4]: < 20%
IC50 [5]: < 10 nM

O=C(NCC(F)(F)F)C(Cc1ccc(C#Cc2ccc(CN3CCOCC3)cc2)cc1)c1nc[nH]c(=O)c1O (stereo not drawn) [Compound 2, 2-(5-hydroxy-6-oxo-1,6-dihydropyrimidin-4-yl)-3-(4-((4-(morpholinomethyl)phenyl)ethynyl)phenyl)-N-(2,2,2-trifluoroethyl) propanamide]
MIC [1, 6]: < 1 µg/mL
MIC [2, 6]: 1 to 8 µg/mL (≈ 1.85 to 14.8 µM)
MIC [3, 6]: > 32 µg/mL
activity at 4 µg/mL [4]: < 20%
activity at 8 µg/mL [4]: < 20%
activity at 16 µg/mL [4]: < 20%
IC50 [5]: 10 to 50 nM

O=C(NCC(Cc1ccc(C#Cc2ccc(CN3CCOCC3)cc2)cc1)c1nc[nH]c(=O)c1O)C(F)F (stereo not drawn) [Compound 15, 2,2-difluoro-N-(2-(5-hydroxy-6-oxo-1,6-dihydropyrimidin-4-yl)-3-(4-((4-(morpholinomethyl)phenyl)ethynyl)phenyl)propyl)acetamide]
MIC [1, 6]: < 1 µg/mL
MIC [2, 6]: 1 to 8 µg/mL (≈ 1.91 to 15.3 µM)
MIC [3, 6]: > 32 µg/mL
activity at 4 µg/mL [4]: 50 to 80%
activity at 8 µg/mL [4]: 50 to 80%
activity at 16 µg/mL [4]: < 20%
IC50 [5]: 10 to 50 nM

O=c1[nH]cnc(CCc2ccc(C#Cc3ccc(CNC4CCOCC4)cc3)cc2)c1O [Compound 244, 5-hydroxy-6-(4-((4-(((tetrahydro-2H-pyran-4-yl)amino)methyl)phenyl)ethynyl)phenethyl)pyrimidin-4(3H)-one]
MIC [1, 6]: < 1 µg/mL
MIC [2, 6]: < 1 µg/mL
MIC [3, 6]: > 32 µg/mL
IC50 [5]: 100 to 1000 nM

O=C(CF)NCC(Cc1ccc(C#Cc2ccc(CN3CCOCC3)cc2)cc1)c1nc[nH]c(=O)c1O (stereo not drawn) [Compound 12, 2-fluoro-N-(2-(5-hydroxy-6-oxo-1,6-dihydropyrimidin-4-yl)-3-(4-((4-(morpholinomethyl)phenyl)ethynyl)phenyl)propyl) acetamide]
MIC [1]: < 1 µg/mL
MIC [2]: 1 to 8 µg/mL (≈ 1.98 to 15.9 µM)
MIC [3]: > 32 µg/mL
IC50 [5]: 10 to 50 nM

O=c1[nH]cnc(C(CNCc2cccnc2)Cc2ccc(C#Cc3ccc(CN4CCOCC4)cc3)cc2)c1O (stereo not drawn) [Compound 250, 5-hydroxy-6-(1-(4-((4-(morpholinomethyl)phenyl)ethynyl)phenyl)-3-((pyridin-3-ylmethyl)amino)propan-2-yl)pyrimidin-4(3H)-one]
MIC [1, 6]: < 1 µg/mL
MIC [2, 6]: > 32 µg/mL
IC50 [5]: < 10 nM

O=c1[nH]cnc(CCc2ccc(C#Cc3cccc(Cl)c3)cc2)c1O [Compound 248, 6-(4-((3-chlorophenyl)ethynyl)phenethyl)-5-hydroxypyrimidin-4(3H)-one]
MIC [1, 6]: > 32 µg/mL
MIC [2, 6]: > 32 µg/mL
IC50 [5]: 100 to 1000 nM
